Assay results published in patent publication US20040170580A1, “Filtering suntan product” (priority 2001, published 2004).

Tested on: normal human keratinocyte/melanocyte cocultures
Assay: UV-induced melanogenesis by 14C-thiouracil incorporation related to amount of protein
Assay type: cell-based
Procedure: The protoprotective and propigmenting effect of the combination was tested on normal human keratinocyte/melanocyte cocultures according to the method described in patent FR 95/06491, by evaluating the UV-induced melanogenesis. The rate of melanin synthesis is evaluated through the incorporation of C^14-labeled thiouracil. It is related to the amount of protein.
Normal human keratinocytes (NHKs) and normal human melanocytes (NHMs) are cultured from foreskin. The two types of cell are amplified and stored frozen. Eight days before the test, each of the cell types is again placed in culture. The keratinocytes are cultured according to the method described by Rheinwald and Green (Cell (1975) 6, 331-334) on feeder cells (3T3 fibroblasts) in Green 7F growth medium (DMEM/F12, 3:1, 10% fetal calf serum (Gibco), 0.18 mM adenine, 10 ng/ml epidermal growth factor EGF, 0.4 μg/ml hydrocortisone, 5 μg/ml insulin, 10 μM isoproterenol, 5 μg/ml transferrin and 2 nM triiodothyronine). The melanocytes are amplified in M2 medium (Olsson, M. J. et al., Lancet (1992) 340, 981). The media are changed every two days.
3 days before the test, 250 000 normal human keratinocytes and 80 000 normal human melanocytes are mixed and seeded per well of 24-well plates (Costar type) and cultured for three days in the keratinocyte growth medium (Green 7F) without phenol red. During the following four days, the culture medium is replaced daily with UV medium (DMEM/F12, 3:1, without phenol red, 2% defined calf serum (HyClone), 10 ng/ml EGF, 10 ng/ml fibroblast growth factor type β (βFGF)).
The UV-induction of pigmentation is carried out by solar simulated radiation (SSR) using a 1 000 watt Oriel Xenon solar simulator comprising a 280-400 nm dichroic filter (Oriel, model 81035) and a Schott WG 320 filter having a wavelength cut-off of 311 nm (corresponding to a thickness of approximately 1.5 mm).
The cell cultures are irradiated once a day for 4 days in a phosphate buffer solution (PBS).
The propigmenting molecules are brought into contact with the cells in the PBS during the irradiation and added to the culture medium (UV medium) after irradiation.
The extract of Burnet is tested at 0.005%. It is prepared in a stock solution at 0.5% in a solvent (dimethyl sulfoxide, DMSO), which is added at a 1/1 000 dilution to the PBS and to the UV medium. The final concentration of the solvent in the culture medium is therefore 1/1 000.
The extract of Chrysanthemum sinensis obtained according to protocol Nos. 2+4 is tested at 1%.
The tyrosine, which serves as a positive control, is tested at 500 μM.
The Mexoryl SX® is tested at 8%.
After each exposure to UV radiation, the formulations containing the sunscreen are applied, in the proportion of 1.4 mg/cm^2, to a quartz slide on which there is a Transpore® strip, according to a method derived from that used to determine sun protection indices in vitro, described by Diffey and Robson (J Soc Cosmet Chemists (1989) 300, 230-235). The assembly is placed above the cocultures for the duration of the irradiation.
After irradiation, the cells are incubated in the UV medium containing 1 μCi/ml of C^14-labeled thiouracil.
Measurement of Melanogenesis:
The following controls are realized:
control culture: no product tested […]
24 hours after the final UV irradiation, the cells are rinsed in phosphate buffer. The proteins are precipitated with 5% trichloroacetic acid (TCA) and washed in order to remove the free radioactivity. […]

Row | Structure (SMILES) | % variation in melanin synthesis compared to the control; A = 14CthioU/amount protein (%/control) (SSR irradiation + solvent (DMSO 1/1000), 8% Mexoryl SX formulation on quartz slide above the cocultures, no propigmenting agent) | % variation in melanin synthesis compared to the control; A = 14CthioU/amount protein (%/control) (SSR irradiation once a day for 4 days, 8% Mexoryl SX formulation 1.4 mg/cm2 on quartz slide above the cocultures, no propigmenting agent, no solvent) | % variation in melanin synthesis compared to the control; A = 14CthioU/amount protein (%/control) (SSR irradiation once a day for 4 days, no screening agent, tyrosine 500 μM, extract of Burnet 0.005% (DMSO solvent), extract of Chrysanthemum sinensis 1%) | % variation in melanin synthesis compared to the control; A = 14CthioU/amount protein (%/control) (SSR irradiation screened by 8% Mexoryl SX formulation, in combination with propigmenting agent: tyrosine 500 μM, extract of Burnet 0.005% (DMSO solvent), extract of Chrysanthemum sinensis 1%) | % variation in melanin synthesis compared to the control; A = 14CthioU/amount protein (%/control) (no irradiation, propigmenting agent alone: tyrosine 500 μM, extract of Burnet 0.005% (DMSO solvent 1/1000), extract of Chrysanthemum sinensis 1%)
1 | CC1(C)C2CCC1(CS(=O)(=O)O)C(=O)C2=Cc1ccc(C=C2C(=O)C3(CS(=O)(=O)O)CCC2C3(C)C)cc1 [Mexoryl SX ®] | 36% | 15% | – | – | –
2 | N[C@@H](Cc1ccc(O)cc1)C(=O)O [tyrosine] | – | – | 382% | 74% | 40%
